Experimental data reported in patent publication US20080096449A1, “USE OF METALLIC GLUCONATE SALTS IN THE PRODUCTION OF ANTIMICROBIALLY ACTIVE SUBSTRATES” (priority 2002, published 2008).

Experiments:
Experiment in all cases: Minimum inhibitory concentration (MIC)
Assay type in all cases: cell-based
[1] = tested on: Staphylococcus aureus ATCC 6538; conditions: strain SA
[2] = tested on: Pseudomonas aeruginosa ATCC 9027; conditions: strain PA
[3] = tested on: Escherichia coli ATCC 11229; conditions: strain EC
[4] = tested on: Candida albicans ATCC 10231; conditions: strain CA
[5] = tested on: Aspergillus niger ATCC 16404; conditions: strain AN

zinc gluconate
MIC [1]: 5000 ppm | MIC [2]: 12500 ppm | MIC [3]: 6250 ppm | MIC [4]: 3120 ppm | MIC [5]: 6250 ppm
